Assay results: article PMC3454389, “Mining the Sinorhizobium meliloti Transportome to Develop FRET Biosensors for Sugars, Dicarboxylates and Cyclic Polyols” (PLoS ONE, 2012)

Key:
SMb20036-CY = SMb20036-CY (Sinorhizobium meliloti, UniProt Q92XC3); test: biochemical; assay type: binding; conditions: compounds similar in structure to D-quinic acid
Description: (§1) Ligand-induced FRET ratio changes of purified FRET biosensor were screened using a LS55 luminescence spectrometer (PerkinElmer Instruments). Excitation (ex.) was at (λ/slit width) 433/10 nm (CFP) or 549/10 nm (OFP). Emission (em.) was measured at 475/10 nm (CFP), 527/10 nm (YFP), 573/10 nm (OFP) and 644/10 nm (RFP). To confirm that Aphrodite and mKate2 were properly folded their fluorescence was individually tested by direct excitation at 510/6 nm and 588/10 nm respectively.
(§2) Affinity constants (Kd) of FRET biosensors with specific ligands were established using a monochromator microplate reader (Safire, Tecan, Switzerland; CFP ex.: (λ\bandwidth) 433/12 nm, em.: 475/12 nm; YFP em.: 527/12 nm. OFP ex.: 533/12 nm, em.: 563/12 nm; RFP em.: 615/12 nm). Proteins were diluted to give relative fluorescence units (RFU) in the detection range of 30,000 to 50,000 RFU at a gain of 90 to 100, and then were added to a dilution series (10^−3 to 10^−11 M) of ligand in Tris-HCl (pH 8.5, 50 mM). The change in relative emission intensities at 527/477 nm (YFP/CFP) or 615/563 nm (RFP/OFP) was used to determine Kd by fitting the titration curves to a single-site-binding isotherm: [drawing 1] with: R, ratio; Rapo, ratio without ligand; Rsat, ratio at saturation of ligand; n, number of equal binding sites; [L], ligand concentration. Non-linear regression was used to fit the curves using SigmaPlot 11 (Systat Software Inc.) (Hill equation, 4 Parameters, b = 1). All measurements were done in quadruplicate.

[1] = molecular target: T1, eCFP-MglB-Aphrodite fusion protein (Escherichia coli, UniProt P0AEE5, F39A); test: Validation of pCYS with glucose binding protein MglB FRET fusion; conditions: purified eCFP-MglB-Aphrodite from pLMB240 (pCYS)
T1 construct: MglB core from pFLIPglu600µΔ13 - SpeI - BD cloning in pCYS - For; made in house; host or cells: E. coli Rosetta2
Description: The FRET vector pCYS was tested by inserting the glucose binding protein from Escherichia coli (MglB). This SBP was reported to have a FRET Δ ratio ranging from −8% to −28% upon binding of glucose that depended on linker length. The purified eCFP-MglB-Aphrodite fusion protein from pLMB240 (Table S1) gave a FRET Δ ratio of −19%, thus validating this vector and the choice of short linkers (of four and three amino acids) which we had incorporated into its design (Fig. 1B).
as §1

SMc04259-CY = SMc04259-CY (Sinorhizobium meliloti, UniProt Q92P64); test: FRET biosensor SMc04259-CY, in vitro ligand titration; assay type: binding; conditions: SMc04259-CY
Description: as §1, §2

[2] = molecular target: T1, eCFP-MglB-Aphrodite fusion protein; conditions: MglB sensors, depended on linker length; cited from earlier work
RL2376-CY = molecular target: T2, RL2376-CY (Rhizobium leguminosarum, UniProt Q1MGQ3); test: FRET biosensor RL2376-CY, in vitro ligand titration; assay type: binding
T2 sequence (Q1MGQ3 24-320): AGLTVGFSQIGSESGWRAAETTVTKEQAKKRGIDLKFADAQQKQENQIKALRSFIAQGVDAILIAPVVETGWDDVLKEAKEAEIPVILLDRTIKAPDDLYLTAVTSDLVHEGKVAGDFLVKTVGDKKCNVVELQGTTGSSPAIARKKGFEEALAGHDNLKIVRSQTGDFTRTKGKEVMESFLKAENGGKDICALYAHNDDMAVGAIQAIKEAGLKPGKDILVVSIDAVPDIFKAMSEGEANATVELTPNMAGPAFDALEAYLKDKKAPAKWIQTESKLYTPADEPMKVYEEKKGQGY
Description: as §1, §2

SMb20712-CY = molecular target: T3, SMb20712-CY (Sinorhizobium meliloti, UniProt Q926E6); test: FRET biosensor SMb20712-CY, in vitro ligand titration; assay type: binding
T3 sequence (Q926E6 21-309): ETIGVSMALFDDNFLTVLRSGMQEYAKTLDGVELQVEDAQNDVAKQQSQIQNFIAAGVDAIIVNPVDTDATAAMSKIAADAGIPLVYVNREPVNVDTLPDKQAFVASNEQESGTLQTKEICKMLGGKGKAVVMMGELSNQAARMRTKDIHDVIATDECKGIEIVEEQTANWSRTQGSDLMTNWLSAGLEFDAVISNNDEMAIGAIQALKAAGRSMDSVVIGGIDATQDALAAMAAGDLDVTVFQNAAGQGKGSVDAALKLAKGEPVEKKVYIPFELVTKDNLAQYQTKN
Description: as §1, §2

rcc03024-CY (DctP) = molecular target: T4, rcc03024-CY (DctP) (Rhodobacter capsulatus, UniProt P37735); test: FRET biosensor rcc03024-CY, in vitro ligand titration; assay type: binding; conditions: for Kd: pCYS (pLMB414), Tris-HCl pH 8.5
T4 construct: made in house; host or cells: E. coli Rosetta2
T4 sequence (P37735 27-333): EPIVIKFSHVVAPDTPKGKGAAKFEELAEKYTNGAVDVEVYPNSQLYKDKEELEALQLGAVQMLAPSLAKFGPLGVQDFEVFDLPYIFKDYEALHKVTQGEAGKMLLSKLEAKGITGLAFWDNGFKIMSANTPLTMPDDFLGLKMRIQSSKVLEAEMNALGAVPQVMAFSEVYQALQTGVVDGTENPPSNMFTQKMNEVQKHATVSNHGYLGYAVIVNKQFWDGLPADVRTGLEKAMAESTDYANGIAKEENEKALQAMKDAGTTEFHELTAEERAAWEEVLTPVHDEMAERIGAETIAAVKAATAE
From the text: Ligand-induced FRET ratio changes of purified FRET biosensor were screened using a LS55 luminescence spectrometer (PerkinElmer Instruments).
Non-linear regression was used to fit the curves using SigmaPlot 11 (Systat Software Inc.) (Hill equation, 4 Parameters, b = 1). All measurements were done in quadruplicate.

SMc02774-CY = SMc02774-CY (Sinorhizobium meliloti, UniProt Q92TD7); test: FRET biosensor SMc02774-CY, in vitro ligand titration; assay type: binding; conditions: SMc02774-CY
Description: as §1, §2

rcc03024-RO = molecular target: T5, rcc03024-RO (Rhodobacter capsulatus, UniProt P37735); test: rcc03024-RO, FRET ratio change on ligand; assay type: binding
T5 construct: made in house; host or cells: E. coli Rosetta2
T5 sequence (P37735 27-333): T4 sequence (P37735 27-333)
Description: as §1
as §2, with “Non-linear regression was used to fit the curves using SigmaPlot 11 (Systat Software Inc.) (Hill equation, 4 Parameters, b = 1). All measurements were done in quadruplicate.” left out

SMc02324-CY = SMc02324-CY (Sinorhizobium meliloti, UniProt Q92S11); test: FRET biosensor SMc02324-CY, in vitro ligand titration; assay type: binding; conditions: SMc02324-CY
Description: as §1, §2

SMc04259-RO = test: SMc04259-RO, FRET ratio change on ligand; assay type: binding, Sinorhizobium meliloti
Description: as §1
as §2, with “Non-linear regression was used to fit the curves using SigmaPlot 11 (Systat Software Inc.) (Hill equation, 4 Parameters, b = 1). All measurements were done in quadruplicate.” left out

SMc04259-CY, sequence (Q92P64 entry or part of it): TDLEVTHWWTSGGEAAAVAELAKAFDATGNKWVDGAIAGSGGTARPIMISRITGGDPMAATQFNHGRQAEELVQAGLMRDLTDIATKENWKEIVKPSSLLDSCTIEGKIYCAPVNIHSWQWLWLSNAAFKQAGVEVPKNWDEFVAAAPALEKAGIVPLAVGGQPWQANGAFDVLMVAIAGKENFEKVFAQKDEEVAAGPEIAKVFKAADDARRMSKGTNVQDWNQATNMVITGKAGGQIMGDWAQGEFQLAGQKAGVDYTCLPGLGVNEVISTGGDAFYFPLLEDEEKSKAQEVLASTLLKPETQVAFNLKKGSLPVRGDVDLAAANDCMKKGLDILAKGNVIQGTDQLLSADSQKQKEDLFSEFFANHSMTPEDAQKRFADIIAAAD
T1 sequence (P0AEE5 24-332 F39A limits assumed): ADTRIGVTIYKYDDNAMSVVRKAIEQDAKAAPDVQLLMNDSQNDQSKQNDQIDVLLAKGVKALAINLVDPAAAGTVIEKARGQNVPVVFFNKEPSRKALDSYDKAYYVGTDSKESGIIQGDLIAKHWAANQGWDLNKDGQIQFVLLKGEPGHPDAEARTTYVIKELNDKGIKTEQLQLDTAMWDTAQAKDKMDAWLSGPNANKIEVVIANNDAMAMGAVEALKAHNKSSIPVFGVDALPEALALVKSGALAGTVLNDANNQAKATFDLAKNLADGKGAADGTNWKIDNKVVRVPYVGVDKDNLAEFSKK
SMb20036-CY, sequence (Q92XC3 entry or part of it): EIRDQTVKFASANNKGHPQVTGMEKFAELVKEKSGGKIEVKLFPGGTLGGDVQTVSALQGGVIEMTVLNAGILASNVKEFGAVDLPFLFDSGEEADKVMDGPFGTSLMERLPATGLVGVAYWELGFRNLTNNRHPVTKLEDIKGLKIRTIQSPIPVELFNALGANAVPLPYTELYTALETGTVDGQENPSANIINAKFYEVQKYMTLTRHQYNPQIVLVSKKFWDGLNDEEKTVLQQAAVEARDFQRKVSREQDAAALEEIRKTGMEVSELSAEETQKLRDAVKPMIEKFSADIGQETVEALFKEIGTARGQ
SMc02774-CY, sequence (Q92TD7 entry or part of it): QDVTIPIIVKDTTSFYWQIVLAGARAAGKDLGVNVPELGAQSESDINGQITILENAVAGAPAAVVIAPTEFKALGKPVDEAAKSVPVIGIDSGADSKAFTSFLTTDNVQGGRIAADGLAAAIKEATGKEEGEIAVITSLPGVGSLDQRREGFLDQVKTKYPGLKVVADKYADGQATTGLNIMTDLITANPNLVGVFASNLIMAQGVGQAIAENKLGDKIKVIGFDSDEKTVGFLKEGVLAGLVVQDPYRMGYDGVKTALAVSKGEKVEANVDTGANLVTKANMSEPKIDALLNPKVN
SMc02324-CY, sequence (Q92S11 entry or part of it): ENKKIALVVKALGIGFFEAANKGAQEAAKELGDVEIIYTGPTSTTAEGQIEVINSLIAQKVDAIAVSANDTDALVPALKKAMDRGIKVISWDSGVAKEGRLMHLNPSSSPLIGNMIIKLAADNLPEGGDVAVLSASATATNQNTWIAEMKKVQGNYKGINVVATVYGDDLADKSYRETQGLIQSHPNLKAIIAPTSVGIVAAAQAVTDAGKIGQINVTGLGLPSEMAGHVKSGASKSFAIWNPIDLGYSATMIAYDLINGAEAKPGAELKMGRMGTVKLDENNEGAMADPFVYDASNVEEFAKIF

Question: Which “change in FRET ratio on addition of compound” value (SMb20036-CY) does the source give for `O=C(O)c1cc(O)c(O)c(O)c1` [gallic acid] here?
Answer: no change in FRET ratio

Question: With `OC[C@H]1OC(O)[C@H](O)[C@@H](O)[C@@H]1O` (some centres unmarked) [glucose] as the molecule, how does the “FRET Δ ratio” value [1] read?
Answer: −19%

Question: And the “change in FRET with compound” value (SMc04259-CY)?
Answer: no change in FRET

Question: And the “FRET Δ ratio upon binding of glucose” value [2]?
Answer: −8% to −28%

Question: What about the “change in FRET ratio on addition of compound” value (RL2376-CY) of the same molecule?
Answer: no change in FRET ratio

Question: With `O=P(O)(O)O[C@@H]1[C@H](O)[C@H](O)[C@@H](OP(=O)(O)O)[C@H](OP(=O)(O)O)[C@H]1O` [inositol 1,4,5-trisphosphate] as the molecule, how does the “reaction of biosensor with compound (FRET)” value (“reaction of biosensor” for short) (SMb20712-CY) read?
Answer: did not react

Question: Which “change in FRET with compound” value (SMc04259-CY) does the source give for `OC[C@H]1O[C@@H](O[C@H]2[C@H](O)[C@@H](O)[C@H](O)O[C@@H]2CO)[C@H](O)[C@@H](O)[C@H]1O` [lactose] here?
Answer: no change in FRET

Question: With `O=C(O)/C=C\C(=O)O` [maleate] as the molecule, how does the “change in FRET ratio on addition of compound” value (rcc03024-CY (DctP)) read?
Answer: no change in FRET ratio

Question: Which “change in FRET ratio on addition of compound” value (rcc03024-CY (DctP)) does the source give for `O=C(O)CC(=O)O` [malonate] here?
Answer: no change in FRET ratio

Question: For `OC[C@H]1O[C@H](O[C@H]2[C@H](O)[C@@H](O)[C@H](O)O[C@@H]2CO)[C@H](O)[C@@H](O)[C@@H]1O` [maltose], which “change in FRET with compound” value (SMc04259-CY) is on record?
Answer: no change in FRET

Question: For `OC[C@H]1OC(O)[C@@H](O)[C@@H](O)[C@@H]1O` (some centres unmarked) [mannose], which “change in FRET with compound” value (SMc04259-CY) is on record?
Answer: no change in FRET

Question: For `O[C@H]1[C@H](O)[C@@H](O)[C@H](O)[C@@H](O)[C@H]1O` [myo-inositol], which Kd (SMb20712-CY; pCYS (pLMB319), Tris-HCl pH 8.5) is on record?
Answer: 470 nM

Question: Which Kd (rcc03024-CY (DctP)) does the source give for `O=C(O)CC(=O)C(=O)O` [oxaloacetate] here?
Answer: 16000 nM

Question: Which “reaction of biosensor” value (SMb20712-CY) does the source give for `O=P(O)(O)O[C@H]1[C@H](OP(=O)(O)O)[C@@H](OP(=O)(O)O)[C@H](OP(=O)(O)O)[C@@H](OP(=O)(O)O)[C@H]1OP(=O)(O)O` [phytic acid] here?
Answer: did not react

Question: Which “reaction of biosensor” value (SMc02774-CY) does the source give for `CC(=O)C(=O)O` [pyruvate] here?
Answer: did not react

Question: What about the “change in FRET ratio on addition of compound” value (rcc03024-CY (DctP)) of the same molecule?
Answer: no change in FRET ratio

Question: What does the source list for `O=C(O)CCC(=O)O` [succinate]?
Answer: change in FRET ratio on binding ligand (rcc03024-RO): no change in FRET ratio; ΔFRET on saturation (%) (rcc03024-CY (DctP); change in FRET ratio on ligand binding): −2.7±0.2%; Kd (rcc03024-CY (DctP)): 36 nM

Question: For `O=C(CO)[C@@H](O)[C@@H](O)[C@H](O)CO` [tagatose], which “reaction of biosensor” value (SMc02324-CY) is on record?
Answer: did not react

Question: For `O=C[C@H](O)[C@@H](O)[C@H](O)CO` [xylose], which “change in FRET with compound” value (SMc04259-CY) is on record?
Answer: no change in FRET

Question: With `O=C(O)CCC(=O)C(=O)O` [α-ketoglutarate] as the molecule, how does the “change in FRET ratio on addition of compound” value (rcc03024-CY (DctP)) read?
Answer: no change in FRET ratio

Question: For gentiobiose, which “change in FRET ratio on binding ligand” value (SMc04259-RO) is on record?
Answer: no change in FRET ratio
